The record followed here is publication PMC9973354 (mBio, 2022).

Series [1] has as its system PA14 ΔfpvA ΔfpvB ΔfiuA ΔfoxA pHERD20T-fpvB Y216T. Kind of series: Growth of quadruple mutant expressing FpvB Y216T. The following applies: 10:90 + 2% arabinose. The series is classed as cell-based, Pseudomonas aeruginosa. The procedure:
(§1) Site-directed mutagenesis was used to confirm the docking predictions and to define the molecular determinants for ligand uptake through FpvB (Fig. 4C). We generated 17 single amino acid substitutions in FpvB and expressed each of them in trans in the quadruple ΔfpvA ΔfpvB ΔfiuA ΔfoxA mutant. Their ability to complement growth of the mutant in the presence of ferrichrome and ferrioxamine B and to restore TS susceptibility was assessed. […] The mutant transporters were tagged with a C-terminal FLAG tag to evaluate expression levels. FLAG-tagged FpvB mutants had WT levels of expression except for Y216T and W347V, which were expressed at 140% and 25% of WT, respectively.
(§2) The ΔfpvA ΔfpvB ΔfiuA ΔfoxA mutant was complemented with WT fpvA, fpvB, fiuA, and foxA in trans as controls (Fig. 4E).
(§3) MIC assays were conducted as previously described ([13], [14]). Overnight cultures were grown in LB from a glycerol stock at 37°C with shaking (200 rpm). Subcultures in 10:90 (1:100 dilution) were cultured for 4 h. Cells were adjusted to an optical density at 600 nm (OD600) of 0.1/500 in 10:90. All compounds were serially diluted 2-fold in dimethyl sulfoxide (DMSO) or H2O at 75× the final concentration. […] The next day, the OD600 was determined with a plate reader (Thermo Scientific) and normalized to percent of growth of the vehicle control after subtracting the OD600 from blank media.

Series [2] relates to PA14 ΔfpvA ΔfpvB pHERD20T-fpvA. Description: MIC assay, ΔfpvA ΔfpvB complemented with fpvA. The series is classed as cell-based, Pseudomonas aeruginosa. To be noted: complementation with fpvA, arabinose induction, 10:90. How it is done: (§4) The ΔfpvA ΔfpvB mutant was complemented in trans with pHERD20T-fpvA or pHERD20T-fpvB. pHERD20T is an arabinose-inducible vector with expression driven by the PBAD promoter under the control of AraC ([30]).
(§5) MIC assays were conducted as previously described ([13], [14]). Overnight cultures were grown in LB from a glycerol stock at 37°C with shaking (200 rpm). Subcultures in 10:90 (1:100 dilution) were cultured for 4 h. Cells were adjusted to an optical density at 600 nm (OD600) of 0.1/500 in 10:90. All compounds were serially diluted 2-fold in dimethyl sulfoxide (DMSO) or H2O at 75× the final concentration. Plates were sealed to prevent evaporation and incubated at 37°C overnight in a shaking incubator (200 rpm). The next day, the OD600 was determined with a plate reader (Thermo Scientific) and normalized to percent of growth of the vehicle control after subtracting the OD600 from blank media.

A further series deals with PA14 ΔfpvA mutant. Description: MIC assay, ΔfpvA mutant. Type of series: cell-based, Pseudomonas aeruginosa. To be noted: ΔfpvA mutant, iron-limited medium (10:90). How it is done: as §5
In series [3] the test system is PA14 ΔfpvA ΔfpvB pHERD20T-fpvB R648C. Kind of series: MIC assay, ΔfpvA ΔfpvB expressing FpvB R648C. Type of series: cell-based, Pseudomonas aeruginosa. The following applies: 10:90 + 2% arabinose. The text has this: (§6) FpvA T660C was used previously to measure pyoverdine-Fe^3+ binding affinity ([32]). However, this technique has not been applied to FpvB. A high-confidence structural model of FpvB was generated using AlphaFold2 ([33], [34]) and aligned with the structure of FpvA (PDB accession number 2O5P) to identify a residue suitable for labeling, with the assumption that FpvA and FpvB undergo similar conformational changes upon ferrisiderophore binding (see Fig. S3A through C in the supplemental material). Based on this analysis, FpvB R648 was mutated to Cys. FpvA T660C and FpvB R648C were each expressed in trans in the ΔfpvA ΔfpvB mutant. […] We could also detect expression by fluorescence microscopy with peripheral labeling consistent with expression in the outer membrane (Fig. 3B). Labeling was undetectable in empty vector and WT controls (see Fig. S4A in the supplemental material).
(§7) Supplementary file : FIG S3 Overlay of FpvA and FpvB showing residues mutated to cysteine for labeling with maleimide dyes. FpvA (PDB accession number 2O5P) was superimposed with the AlphaFold2 model of FpvB. FpvA is shown in beige and FpvB in blue. […]
(§8) MIC assays were conducted as previously described ([13], [14]). […] The next day, the OD600 was determined with a plate reader (Thermo Scientific) and normalized to percent of growth of the vehicle control after subtracting the OD600 from blank media.

Series [4] concerns PA14 ΔfpvA ΔfpvB ΔfiuA ΔfoxA pHERD20T. Description: Growth of quadruple mutant with empty vector. Type of series: cell-based, Pseudomonas aeruginosa. The following applies: 10:90 + 2% arabinose. How it is done:
as §1, §2, §3

The test system of series [5] is PA14 ΔfpvA ΔfpvB ΔfiuA ΔfoxA quadruple mutant. Description: Growth phenotypes of deletion mutants, quadruple mutant. The series is classed as cell-based, Pseudomonas aeruginosa. To be noted: 17 μg/mL TS, 10:90. The text has this:
PA14, ΔfpvA, ΔfpvB, and ΔfpvA ΔfpvB strains treated with TS (A) and DSX (B) in 10:90. Green indicates growth, and white indicates no growth. Growth is expressed as percent of control. The PA14 ΔfpvA ΔfpvB strain complemented with pHERD20T, fpvA, or fpvB treated with TS (C) and DSX (D) in 10:90. […] All experiments are averaged from three independent biological replicates. Blue indicates growth and white indicates no growth. (H) Summary of growth phenotypes of WT PA14 and combinations of single, double, triple, and quadruple deletion mutants in fpvA, fpvB, fiuA, and foxA. […] Green indicates growth, whereas no growth is indicated in white. […] Representative plates are shown.
If there were no transporters for a particular siderophore, the mutant would fail to grow due to iron restriction.

For series [6], the system named is PA14 ΔfpvA ΔfpvB pHERD20T-fpvA T660C. Description: MIC assay, ΔfpvA ΔfpvB expressing FpvA T660C. The series is classed as cell-based, Pseudomonas aeruginosa. The following applies: 10:90 + 2% arabinose.
Source text: as §6, §7, §8

In a further series the test system is PA14 ΔfpvB mutant. Kind of series: MIC assay, ΔfpvB mutant. The following applies: 10:90, growth reduced at 17 μg/mL. The series is classed as cell-based, Pseudomonas aeruginosa. The procedure: as §5
Series [7] has as its system PA14 ΔfpvA ΔfpvB ΔfiuA ΔfoxA pHERD20T-fpvB D219A. Description: Growth of quadruple mutant expressing FpvB D219A. The series is classed as cell-based, Pseudomonas aeruginosa. To be noted: 10:90 + 2% arabinose. The procedure: as §1, §2, §3
For series [8] the following is noted: highest concentration tested, 10μM fluorescein-5-maleimide in PBS. How it is done:
Supplementary file : FIG S4 (A) Microscopy images of the PA14 ΔfpvA ΔfpvB strain with pHERD20T, pHERD20T-fpvA, and pHERD20T-fpvB treated with Alexa Fluor 594. Representative images are shown. Scale, 5μm. (B) TS partly quenches fluorescence of fluorescein-5-maleimide in the absence of cells. Each compound at the highest concentration tested was added to 10μM of fluorescein-5-maleimide in PBS in triplicate. TS reduced fluorescence to about 80% of the control. (Excitation, 485nm; emission, 528nm). ***, P < 0.001 (Student’s t test). […] Results are averaged from three independent biological replicates. Download FIG S4, EPS file, 39.8 MB.
TS was omitted from these studies because it quenched fluorescence (~20%) of the dye in the absence of cells (Fig. S4B). In the absence of protein, none of the three siderophores quenched fluorescence of the dye at the highest concentrations tested. Quenching curves were then generated and used to calculate the dissociation constant (Kd).

Series [9] can be described thus: Maximum soluble TS concentration. The following applies: in MIC assay medium.
Series [10] relates to PA14 ΔfpvA ΔfpvB ΔfiuA ΔfoxA pHERD20T-fpvB Y412A. Kind of series: Growth of quadruple mutant expressing FpvB Y412A. Type of series: cell-based, Pseudomonas aeruginosa. To be noted: 10:90 + 2% arabinose. How it is done:
as §1, §2, §3

The test system of series [11] is PA14 ΔfpvA ΔfpvB pHERD20T-fpvB. Kind of series: MIC assay, ΔfpvA ΔfpvB complemented with fpvB. Type of series: cell-based, Pseudomonas aeruginosa. The following applies: complementation with fpvB, arabinose induction, 10:90; susceptibility greater than with fpvA. The procedure: as §4, §5
For another series, the system named is PA14. Description: MIC assay, WT PA14. The series is classed as cell-based, Pseudomonas aeruginosa. To be noted: WT PA14, iron-limited medium (10:90). How it is done: as §5
The next series has as its system PA14 ΔfpvA ΔfpvB mutant. Description: MIC assay, ΔfpvA ΔfpvB mutant. The series is classed as cell-based, Pseudomonas aeruginosa. To be noted: ΔfpvA ΔfpvB mutant, 10:90. How it is done: as §5

With `C=C(NC(=O)C(=C)NC(=O)c1csc(C2=N[C@@H]3c4csc(n4)[C@H]4NC(=O)c5csc(n5)[C@H]([C@](C)(O)[C@@H](C)O)NC(=O)[C@H]5CSC(=N5)/C(=C/C)NC(=O)[C@H]([C@@H](C)O)NC(=O)c5csc(n5)[C@]3(CC2)NC(=O)[C@H](C)NC(=O)C(=C)NC(=O)[C@H](C)NC(=O)[C@H]([C@@H](C)CC)N[C@@H]2C=Cc3c([C@H](C)O)cc(nc3[C@H]2O)C(=O)O[C@@H]4C)n1)C(N)=O` [TS, thiostrepton], the TS susceptibility result in series [1] is “reduced TS susceptibility”; in series [2], “restored TS susceptibility”; in series [3], “WT susceptibility”; in series [4] it was “resistant”; in [5], “resistant”; in [7], “reduced TS susceptibility”. In addition, the TS susceptibility result in series [10] was “reduced TS susceptibility”; in series [11], “restored TS susceptibility”. The “TS susceptibility (MIC assay)” value is “susceptible” in the series with PA14 ΔfpvA mutant, “resistant” in the series on PA14 ΔfpvB mutant, “susceptible” with PA14 and “resistant” with PA14 ΔfpvA ΔfpvB mutant. For the same molecule, the “increase of susceptibility to TS compared to WT FpvA” value in series [6] is 4 fold. Also, the dye fluorescence remaining entry in [8] is given as “about 80 % of the control”. Also, the “quenching of dye fluorescence in the absence of cells” value in series [8] is given as ~ 20%. Moreover, the maximum soluble concentration in series [9] stood at 17 µg/mL.
